According to patent US9370506B2, “Modulators of aldehyde dehydrogenase and methods of use thereof” (The Board of Trustees of the Leland Stanford Junior …, priority 2008, dated 2016):

Legend:
[1] = target: T1, ALDH3 (Homo sapiens, UniProt P30838); experiment: ALDH3 enzymatic activity, spectrophotometric NAD+ to NADH assay; type: biochemical; details: acetaldehyde as substrate; FIG. 15
T1 construct: made in house; host or cells: BL21 E. coli
T1 sequence (P30838 1-453): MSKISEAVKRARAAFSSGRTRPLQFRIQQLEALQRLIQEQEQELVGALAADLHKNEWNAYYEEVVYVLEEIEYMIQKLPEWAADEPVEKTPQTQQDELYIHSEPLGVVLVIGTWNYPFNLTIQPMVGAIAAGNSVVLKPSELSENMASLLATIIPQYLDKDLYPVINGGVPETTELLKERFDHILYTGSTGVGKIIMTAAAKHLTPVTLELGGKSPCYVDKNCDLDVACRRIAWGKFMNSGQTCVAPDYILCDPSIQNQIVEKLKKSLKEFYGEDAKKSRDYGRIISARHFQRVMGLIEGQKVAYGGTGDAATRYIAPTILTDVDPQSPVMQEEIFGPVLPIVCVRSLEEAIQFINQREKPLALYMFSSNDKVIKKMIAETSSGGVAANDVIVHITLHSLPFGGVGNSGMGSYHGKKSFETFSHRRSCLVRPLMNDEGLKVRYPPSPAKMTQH
Description: (§1) Reagents for plant-derived compounds safrole, isosafrole, piperine, sesamin, capsaicin were purchased from Sigma-Aldrich Chemicals and dihydromethysticin was purchased from AvaChem. Scientific. Piperine related compounds, Alda-101 to Alda-112, were synthesized by standard organic chemistry. All testing compounds were dissolved in dimethyl-sulfoxide (DMSO) to obtain a stock solution of 20 mM. Different recombinant ALDH isozymes with a His-epitope tag at the N-terminus were constructed, cloned and expressed in BL21 E. coli host cells according published methods (Chen et al., 2008 Science 321:1493). The bacteria were subjected to 0.5 mM IPTG induction for protein expression at 30° C. Purification of the recombinant proteins by affinity nickel columns were carried out using a standard protocol according to manufacturer's instructions (Novagen, Wis., USA).
(§2) ALDH enzymatic activity was determined spectrophotometrically using purified recombinant protein (15 ug) in the reductive reaction of NAD^+ to NADH at λ340 nm (Rex et al., 1985, Alcohol Clin Exp Res 9: 147). All the assays in the presence of absence of a testing compound were carried out at 25° C. in […] pyrophosphate buffer, pH=9.5, 2.4 mM NAD+ and 10 mM acetaldehyde or phenylacetaldehyde as a substrate.

[2] = system: SCC VII murine squamous cell carcinoma cells; experiment: Tumor radiation therapy model; type: in vivo, mice; details: topical 200 μl of 3 mM, FIG. 21
Description: In order to determine the impact of Alda-1 on the effectiveness of radiation therapy, C57Bl/6J mice were inoculated subcutaneously with SCC VII murine squamous cell carcinoma cells (5×10^5) and exposed to radiation therapy (250cGy/day) in the absence or presence of Alda-1 (200 μl of 3 mM Alda-1 in 95% ethanol) or ethanol (200 μl of 95% ethanol) applied 5 min before and 5 min after radiation. Tumor volume was measured daily until the tumor reached four times its starting size at treatment onset (Ning et al., 2008, Mol Cancer Therapy 7:1569-78).

[3] = system: C57Bl/6J mice; experiment: Radiation dermatitis model, gamma irradiation of skin; type: in vivo
Text: Radiation dermatitis is a painful side effect experienced by human patients undergoing radiotherapy for solid tumors. Radiation dermatitis is believed to be due to acute oxidative injury to the skin, which leads to lipid peroxidation and the accumulation of reactive aldehydes, such as 4-hydrorxynonenal. In this example, Alda-1 is shown to reduce radiation dermatitis by maintaining ALDH activity during exposure to radiation. C57Bl/6J mice were exposed to 6Gy gamma irradiation per day (applied directly to the shaved back area over a period of 5 minutes) in the absence or presence of 200 μl of 3 mM Alda-1 (in 95% ethanol) or […] alone (vehicle control). Alda-1 or ethanol alone was applied topically 5 minutes before and 5 minutes after each radiation treatment for a total of 10 sessions (60 Gy total, 6 Gy/day with a two-day break after 5 sessions). Mice were euthanized and exposed skin was dissected, and either homogenized in Lysis Buffer (for ALDH2 activity assay, FIG. 18) or fixed in 4%-paraformaldehyde (for histological analysis, FIG. 19).

[4] = target: T2, ALDH2 isozyme (Homo sapiens, UniProt P05091); experiment: ALDH2 enzymatic activity, spectrophotometric NAD+ to NADH assay; type: biochemical; details: 40 uM
T2 construct: made in house; host or cells: BL21 E. coli
T2 sequence (P05091 18-517): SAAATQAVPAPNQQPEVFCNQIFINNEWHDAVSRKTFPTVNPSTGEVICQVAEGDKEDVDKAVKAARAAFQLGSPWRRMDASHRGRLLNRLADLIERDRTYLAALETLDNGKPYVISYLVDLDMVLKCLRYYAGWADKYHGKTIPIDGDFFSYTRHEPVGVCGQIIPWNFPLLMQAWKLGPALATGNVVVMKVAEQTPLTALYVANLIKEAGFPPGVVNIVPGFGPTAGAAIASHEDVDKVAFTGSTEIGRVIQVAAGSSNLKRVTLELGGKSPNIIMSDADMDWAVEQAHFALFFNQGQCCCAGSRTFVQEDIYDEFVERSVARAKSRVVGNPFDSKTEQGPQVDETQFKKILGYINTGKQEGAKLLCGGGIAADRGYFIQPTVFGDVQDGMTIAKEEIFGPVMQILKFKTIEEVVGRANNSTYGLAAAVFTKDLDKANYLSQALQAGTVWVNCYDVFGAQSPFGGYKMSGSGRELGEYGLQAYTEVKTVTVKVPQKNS
Description: as §1, §2

- effect on enzymatic activity of ALDH3 isozyme [1]: does not have any effect
- effect of co-incubation on safrole inhibition of ALDH2 ([4]; safrole 500 uM & 1000 uM, FIG. 17): prevented and reversed
- effect of co-incubation on safrole inhibition of ALDH2, 15-minute kinetic measurements ([4]; safrole 1000 uM, FIG. 18): prevented and reversed
SMILES: O=C(NCc1ccc2c(c1)OCO2)c1c(Cl)cccc1Cl [Alda-1, N-(1,3-benzodioxol-5-ylmethyl)-2,6-dichlorobenzamide]
- sensitivity of the tumor to radiation treatment (tumor growth) ([2]; 250cGy/day, vs ethanol vehicle control): increased significantly the sensitivity of the tumor to radiation treatment
- tumor growth in non-irradiated mice ([2]; no radiation, vs ethanol treated mice): no effect on tumor growth
- ALDH activity in irradiated skin ([3]; topical 3 mM in 95% ethanol, 6Gy gamma irradiation, FIG. 19): significantly attenuated the inhibition of ALDH
- Epidermal thickening after radiation ([3]; topical 3 mM, 5 days exposure to 6Gy irradiation, vs vehicle control, FIG. 20): significantly reduced
